Laboratory results from US11370794B2, “Toll-like receptor antagonist compounds and methods of use” (Dynavax Technologies Corporation, priority 2016, dated 2022).
Where two headings read alike, the source gives them in different places.

What was measured:
human TLR8 = molecular target: T1, human TLR8 (Homo sapiens, UniProt Q9NR97); assay: Inhibition of human TLR8 in human monocytes (TNF-alpha / IL-1 beta ELISA); assay type: cell-based; conditions: human monocytes, agonist ORN8L 100 μg/mL, 24 hours
T1 construct: endogenous in cells; host or cells: primary human monocytes (CD14 microbeads) from buffy coats of healthy donors
T1 sequence (Q9NR97 27-1041): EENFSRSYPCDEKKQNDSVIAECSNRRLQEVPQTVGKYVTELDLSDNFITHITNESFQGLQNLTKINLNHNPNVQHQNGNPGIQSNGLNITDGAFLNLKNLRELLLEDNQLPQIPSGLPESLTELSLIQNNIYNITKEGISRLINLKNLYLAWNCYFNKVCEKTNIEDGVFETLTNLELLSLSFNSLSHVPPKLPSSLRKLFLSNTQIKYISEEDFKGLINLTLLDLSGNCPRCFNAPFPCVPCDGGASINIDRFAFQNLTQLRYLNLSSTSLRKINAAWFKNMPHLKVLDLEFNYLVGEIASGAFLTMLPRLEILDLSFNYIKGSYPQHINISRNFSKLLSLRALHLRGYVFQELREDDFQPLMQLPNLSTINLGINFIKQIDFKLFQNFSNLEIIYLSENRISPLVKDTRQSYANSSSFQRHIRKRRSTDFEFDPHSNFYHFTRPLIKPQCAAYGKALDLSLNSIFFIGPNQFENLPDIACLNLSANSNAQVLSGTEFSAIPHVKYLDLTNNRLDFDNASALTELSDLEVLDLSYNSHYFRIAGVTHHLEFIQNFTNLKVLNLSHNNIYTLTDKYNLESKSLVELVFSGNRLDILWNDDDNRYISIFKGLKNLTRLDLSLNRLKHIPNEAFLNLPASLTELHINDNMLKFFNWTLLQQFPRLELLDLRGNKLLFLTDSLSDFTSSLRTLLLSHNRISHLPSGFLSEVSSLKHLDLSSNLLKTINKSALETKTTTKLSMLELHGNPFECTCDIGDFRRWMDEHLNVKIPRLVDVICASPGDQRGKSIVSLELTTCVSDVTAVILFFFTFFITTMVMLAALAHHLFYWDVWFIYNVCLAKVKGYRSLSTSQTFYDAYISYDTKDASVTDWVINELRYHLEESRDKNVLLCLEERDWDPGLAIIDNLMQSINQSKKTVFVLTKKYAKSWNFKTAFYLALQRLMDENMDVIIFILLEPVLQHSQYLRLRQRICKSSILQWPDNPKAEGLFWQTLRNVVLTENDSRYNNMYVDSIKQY
Outline: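 Primary human monocytes from donor buffy coats (~200,000 cells/well) given serially diluted compound, then ORN8L RNA oligonucleotide agonist at 100 μg/mL final. After 24 h at 37 °C, supernatant TNF-alpha and/or IL-1 beta measured by ELISA; IC50 from the concentration-response of cytokine release.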

human TLR9 = molecular target: T2, human TLR9 (Homo sapiens, UniProt Q9NR96); assay: Inhibition of human TLR9 in human B cells (IL-6 ELISA); assay type: cell-based; conditions: for IC50: human B cells, agonist 1018 ISS 1 μM; for inhibits TLR9-dependent responses (in words): summary statement of the description
T2 construct: endogenous in cells; host or cells: primary human B cells (CD19 microbeads) from buffy coats of healthy donors
T2 sequence (Q9NR96 26-1032): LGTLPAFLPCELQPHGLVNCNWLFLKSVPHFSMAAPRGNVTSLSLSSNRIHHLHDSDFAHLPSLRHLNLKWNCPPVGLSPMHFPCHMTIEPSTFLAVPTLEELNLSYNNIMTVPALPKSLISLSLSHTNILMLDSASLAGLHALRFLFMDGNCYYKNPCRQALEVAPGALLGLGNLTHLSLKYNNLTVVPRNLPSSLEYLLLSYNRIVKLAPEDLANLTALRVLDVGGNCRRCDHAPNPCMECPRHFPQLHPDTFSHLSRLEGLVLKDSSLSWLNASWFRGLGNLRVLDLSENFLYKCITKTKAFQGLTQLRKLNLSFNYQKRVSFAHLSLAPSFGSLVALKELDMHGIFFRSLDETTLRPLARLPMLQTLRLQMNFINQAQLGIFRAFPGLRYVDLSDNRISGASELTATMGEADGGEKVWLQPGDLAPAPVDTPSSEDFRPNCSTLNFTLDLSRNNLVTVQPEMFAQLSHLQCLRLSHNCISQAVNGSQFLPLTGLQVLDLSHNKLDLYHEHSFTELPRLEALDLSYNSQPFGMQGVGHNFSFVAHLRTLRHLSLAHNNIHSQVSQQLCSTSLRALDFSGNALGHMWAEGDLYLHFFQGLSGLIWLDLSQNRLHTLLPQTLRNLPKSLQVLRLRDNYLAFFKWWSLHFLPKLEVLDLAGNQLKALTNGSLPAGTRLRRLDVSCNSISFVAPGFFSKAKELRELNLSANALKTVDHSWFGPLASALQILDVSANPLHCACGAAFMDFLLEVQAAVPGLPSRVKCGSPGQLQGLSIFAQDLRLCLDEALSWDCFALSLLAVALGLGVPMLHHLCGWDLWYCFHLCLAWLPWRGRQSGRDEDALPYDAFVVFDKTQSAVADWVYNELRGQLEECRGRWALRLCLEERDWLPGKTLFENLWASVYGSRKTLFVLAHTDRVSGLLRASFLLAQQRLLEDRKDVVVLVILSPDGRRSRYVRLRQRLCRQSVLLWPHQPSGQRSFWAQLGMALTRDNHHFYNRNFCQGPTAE
Outline: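 Primary human B cells (CD19-isolated from donor buffy coats), ~300,000 per well, treated with compound (about 0.01–10 μM, some 0.001–30 μM) then 1 μM CpG oligonucleotide 1018 ISS. After 48 hours at 37° C, supernatant IL-6 measured by ELISA; IC50 from concentration-response of TLR9-dependent activity.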

[1] = TNF-alpha readout, read-out: Human TLR8 IC50 TNF-a
[2] = IL-6 readout, 48 hours, range about 0.01 to 10 μM, read-out: Human TLR9 IC50

| IC50 (human TLR8; [1]) | IC50 (human TLR9; [2]) | IC50 (human TLR9; IL-6, 48 hours, expanded dilution series about 0.001 to 30 μM, read-out: Human TLR9 IC50, expanded dilution series) | inhibits TLR9-dependent responses (in words) (human TLR9) | IC50 (human TLR8; IL-1 beta readout, read-out: Human TLR8 IC50 IL-1b) | SMILES |
| --- | --- | --- | --- | --- | --- |
| 4860 nM | 3 nM |  |  | 5040 nM | CCN(CC)CCNC(=O)C1CCN(c2nnc(C)c3c(C)n(-c4ccc(C)cc4)nc23)CC1 [20x, N-(2-(diethylamino)ethyl)-1-(3,4-dimethyl-2-(p-tolyl)-2H-pyrazolo[3,4-d]pyridazin-7-yl)piperidine-4-carboxamide] |
| ≥ 20000 nM | 9 nM |  |  |  | Cc1ccc(-n2nc3c(N4CCCC(C(=O)NCCN(C)C)C4)nnc(C)c3c2C)cc1 (centres unmarked) [45x, 1-(3,4-dimethyl-2-(p-tolyl)-2H-pyrazolo[3,4-d]pyridazin-7-yl)-N-(2-(dimethylamino)ethyl)piperidine-3-carboxamide] |

Continued, compound first:

| SMILES | IC50 (human TLR8; [1]) | IC50 (human TLR9; [2]) | IC50 (human TLR9; IL-6, 48 hours, expanded dilution series about 0.001 to 30 μM, read-out: Human TLR9 IC50, expanded dilution series) | inhibits TLR9-dependent responses (in words) (human TLR9) | IC50 (human TLR8; IL-1 beta readout, read-out: Human TLR8 IC50 IL-1b) |
| --- | --- | --- | --- | --- | --- |
| Cc1ccc(-n2nc3c(N4CCCC(C(=O)NCCNC(C)C)C4)nnc(C)c3c2C)cc1 (centres unmarked) [compound 16, 1-(3,4-dimethyl-2-(p-tolyl)-2H-pyrazolo[3,4-d]pyridazin-7-yl)-N-(2-(isopropylamino)ethyl)piperidine-3-carboxamide] | ≥ 20000 nM | 46 nM |  |  |  |
| Cc1ccc(-n2nc3c(N4CCC(C(=O)NCCCN(C)C)CC4)nncc3c2C)cc1 [compound 42, N-(3-(dimethylamino)propyl)-1-(3-methyl-2-(p-tolyl)-2H-pyrazolo[3,4-d]pyridazin-7-yl)piperidine-4-carboxamide] | ≥ 20000 nM | 133 nM |  |  |  |
| CCN(CC)C1CCN(C(=O)C2CCN(c3nnc(C)c4c(C)n(-c5ccc(C)cc5)nc34)CC2)CC1 [compound 43, (4-(diethylamino)piperidin-1-yl)(1-(3,4-dimethyl-2-(p-tolyl)-2H-pyrazolo[3,4-d]pyridazin-7-yl)piperidin-4-yl)methanone] | ≥ 20000 nM | 1 nM | 13 nM | inhibit |  |
| Cc1ccc(-n2nc3c(N4CCC(C(=O)NCCN5CCOCC5)CC4)nnc(C)c3c2C)cc1 [17x, 1-(3,4-dimethyl-2-(p-tolyl)-2H-pyrazolo[3,4-d]pyridazin-7-yl)-N-(2-morpholinoethyl)piperidine-4-carboxamide] | ≥ 20000 nM | 17 nM |  | inhibit |  |
| Cc1ccc(-n2nc3c(N4CCC(C(=O)N5CCC(N6CCOCC6)CC5)CC4)nnc(C)c3c2C)cc1 [compound 69, (1-(3,4-dimethyl-2-(p-tolyl)-2H-pyrazolo[3,4-d]pyridazin-7-yl)piperidin-4-yl)(4-morpholinopiperidin-1-yl)methanone] | 3840 nM | 253 nM |  |  |  |
| Cc1ccc(-n2nc3c(N4CCC(C(=O)N5CCC(CN(C)Cc6ccccc6)C5)CC4)nnc(C)c3c2C)cc1 (centres unmarked) [compound 68, (3-((benzyl(methyl)amino)methyl)pyrrolidin-1-yl)(1-(3,4-dimethyl-2-(p-tolyl)-2H-pyrazolo[3,4-d]pyridazin-7-yl)piperidin-4-yl)methanone] | 1180 nM | 85 nM |  |  |  |
